# Measurements as given in patent US8969312B2, “Low side effect pharmaceutical composition containing antituberculosis drugs” (priority 2011, dated 2015).
# Key:
# [1] = tested on: Male SD (Sprague-Dawley) rats; experiment: Rat study of PZA combined with BNPP (AST, ALT, histology, GSP); assay type: in vivo
# Description: (§1) The body weight of the rats was monitored throughout the experiment. Rats were anesthetized with sodium pentobarbital intraperitoneally (i.p.) at the dose of 50 mg/kg and galactose was injected intravenously through a polyethylene catheter positioned in internal jugular vein. The catheter was positioned by cut-down technique and its end was embedded under the skin behind the neck. After the surgery, the rats were fasted overnight during the recovery period (about 16 hours) with unrestricted water access.
# Animals were randomized into one of five groups, each involving three treatments. The first treatment involved either a BNPP injection of 50 mg/kg or a BNPP vehicle (VEH1) injection (saline). […] The second treatment involved injections of either 500 mg/kg PZA or PZA vehicle (VEH2, saline). PZA was dissolved in saline and i.p. injected at a volume of […]. The first treatment (BNPP or VEH1) was administered 15 minutes before the […].
# 2. PZA group (PZA, n=10): continuously injections of PZA, VEH1 and VEH2 intraperitoneally once every day for 49 days;
# 3. BNPP-PZA group (BNPP-PZA, n=10): continuously injections of BNPP, PZA and VEH2 intraperitoneally once every day for 49 days;
# (§2) After the rats were sacrificed, the livers were subjected to histology analysis.
# All rats were subjected to GSP tests.
# [2] = tested on: Male SD (Sprague-Dawley) rats; experiment: Rat study of INH combined with DSF and/or BNPP (AST, ALT, histology, 8-iso-PGF2α, GSP, GEC); assay type: in vivo
# Description: as §1, with “Galactose” for “galactose”
# Animals were randomized into one of five groups, each involving three treatments. The first treatment involved either a BNPP injection of 25 mg/kg or a BNPP vehicle (VEH1) injection (saline). […] The second treatment involved injections of either 100 mg/kg DSF or DSF vehicle (VEH2, corn oil). DSF was dissolved in corn oil and i.p. injected at a volume of […]. The third treatment involved injections of INH (25 mg/kg) or INH vehicle (VEH3, saline). INH was dissolved in saline (0.9% NaCl), and i.p. injected at a volume of […]. The first treatment (BNPP or VEH1) was administered 30 minutes before the third treatment (INH or VEH3), and the second treatment (DSF or VEH2) was administered 15 minutes before the third treatment (INH or VEH3).
# Galactose elimination capacity (GEC) test was performed 16 hours […] at the end of 21 days-treatment to measure the liver function.
# After 21 days treatment, the rats were sacrificed with ether and blood samples collected in test tubes containing EDTA by dorsal aorta extract. The blood samples were centrifuged at 13,000 g for 15 min at 4° C. and plasma was aliquot into eppendorf tubes and stored at −80° C.
# as §2
# All isomers of PGF2α were dissolved or diluted in adequate amount of ethanol and after aliquot, stored at −70° C. As an internal standard, 10 ng of 8-iso-PGF2α-d4 was mixed with 0.5 ml of plasma in a glass tube and was then purified by a C18 Solid-Phase Extraction column (J. T. Baker, MA, USA). Sample eluants were evaporated under a stream of nitrogen and re-dissolved in 50 μl acetonitrile:water (15:85 v/v) solution followed by vortex for 30 seconds and 10 μl extract was further analyzed with a LC/MS/MS system.
# Shimadzu system control and one Shimadzu autosampler (Shimadzu, Japan). HPLC purification of the extract by C18 column (mesh size 5-μm, diameter 50×2.1 mm) using 2 mM ammonium acetate/acetonitrile, ACN gradient as mobile phase (t=0 mM, 15% ACN; t=6 mM, 70% ACN; t=7 mM, 90% ACN; t=8 mM, 90% ACN; t=8.5 min, 15% ACN). […] Such HPLC system was connected to a triple stage quadrupole mass spectrometer (API3000, Applied Biosystem, Foster City, Calif., USA) and is equipped with a Turbo Ion Spray ionization source, and uses negative electrospray for ionization. Such spectrophotometer uses diffusion of standard solution of 200 ng/ml 8-iso-PGF2α or 8-iso-PGF2α-d4 to optimize the mode for multiple reaction monitoring (MRM).
# All rats were subjected to GSP and GEC tests.
# CYP2E1 [3] = biological target: T1, CYP2E1 (Homo sapiens, UniProt P05181); experiment: Human liver microsomal CYP2E1, chlorzoxazone 6-hydroxylation; settings: human; for inhibition at 30 min, 16.5 µM / inhibition at 30 min, 33 µM / inhibition at 30 min, 66 µM / inhibition at 30 min, 0.08 % (w/v): human liver microsomes, pH 7.4, probe Chlorzoxazone; for inhibition at 30 min, 0.167 % (w/v): microsomes, pH 7.4;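 for all read-outs here: chlorzoxazone added as substrate, 6-hydroxychlorzoxazone formation quantified by LC/MS/MS after 30 min at 37 °C with NADP+ regenerating system, compared against solvent control without test sample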
# T1 sequence (P05181 whole entry): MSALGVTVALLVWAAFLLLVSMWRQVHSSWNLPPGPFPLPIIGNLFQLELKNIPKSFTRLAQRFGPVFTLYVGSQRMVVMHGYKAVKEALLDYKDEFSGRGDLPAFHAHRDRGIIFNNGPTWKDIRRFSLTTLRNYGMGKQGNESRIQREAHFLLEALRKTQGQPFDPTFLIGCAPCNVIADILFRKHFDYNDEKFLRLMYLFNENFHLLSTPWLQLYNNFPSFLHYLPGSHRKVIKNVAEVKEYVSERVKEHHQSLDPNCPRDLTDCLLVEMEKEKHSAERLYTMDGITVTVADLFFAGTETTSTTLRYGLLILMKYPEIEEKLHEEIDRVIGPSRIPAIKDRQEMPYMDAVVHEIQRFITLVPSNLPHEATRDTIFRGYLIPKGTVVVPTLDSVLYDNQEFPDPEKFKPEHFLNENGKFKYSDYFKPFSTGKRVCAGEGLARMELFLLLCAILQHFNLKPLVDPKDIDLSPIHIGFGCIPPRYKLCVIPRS
# Description: (§3) Microsomes prepared from human liver were used to extract cytochrome P450 2E1 (CYP2E1) and CYP2E1 inhibitors were screened from 39 Chinese medicine guiding drugs and 10 excipients. Chlorzoxazone hydroxylation is a reaction catalyzed primarily by CYP2E1 in liver. The extracted human liver microsomal cytochrome P450 2E1 (CYP2E1) was mixed with its substrate, Chlorzoxazone, and test sample was then added Inhibition of CYP2E1 activity was calculated by measuring CYP2E1 standard metabolite, 6-OH-CZX (6-Hydroxy-Chlorzoxazone), and compared with control 6-OH-CZX.
# (§4) After incubation, 16 mM Chlorzoxazone and test samples were added to experimental groups; methanol:sterilized water at 1:1 ratio was added to control groups and DDTC was added to positive control groups,
# (§5) Finally, cofactor 1 mM NADP^+, 10 mM G6P and 2 IU G6PD were added and reaction mixtures were transferred to pre-incubation 37° C. water bath for 1 mM and activity was measured after 30 min of reaction
# (§6) At the end of reaction, 500 μl acetonitrile was added to stop the reaction followed by 5 g/mL 4-hydroxy-tobutamide after 1 mM incubation. The mixture was then centrifuged and 20 L of supernatant was diluted ten times with methanol/sterilized water and 5 L was used for LC/MS/MS analysis. […] The inhibition of CYP2E1 was then calculated by the following equation:
# [4] = biological target: T2, human liver microsomal cytochrome P450 2E1 (CYP2E1) (Homo sapiens, UniProt P05181); experiment: as above
# T2 sequence (P05181 whole entry): as above
# Description: as §3, §4, §5, §6
# 129/sv mice [5] = experiment: Mouse study of INH/RIF with oral Kaempferol, Mannitol, Saccharin, Sucralose, Dicalcium phosphate or Crospovidone; assay type: in vivo; settings: 3 weeks, in words
# From the text: Animals were randomized into one of thirteen groups, each involving three treatments. […].
# All mice were subjected to GSP test.
# amidase = experiment: Mouse liver microsomal amidase, isoniazid to isonicotinic acid; assay type: biochemical
# 129/sv mice [6] = experiment: Mouse study of INH/RIF/PZA with oral Mannitol (GSP); assay type: in vivo; settings: in words
# Description: Mice were anesthetized with ether at the dose of 50 mg/kg and galactose was retro-orbitally injected and blood samples were collected 60 min after injection through tail vein.
# Animals were randomized into one of three groups, each involving four treatments. […] The second treatment involved injections of 50 mg/kg INH or INH vehicle (VEH1, normal saline). […] The third treatment involved injections of RIF (100 mg/kg) or RIF vehicle (VEH2, saline). […] The fourth treatment involved injections of PZA (250 mg/kg) or PZA vehicle (VEH3, saline).
# [7] = biological target: T2, human liver microsomal cytochrome P450 2E1 (CYP2E1)
# Description: as §3, §4, §5, §6
# CYP2E1 [8] = biological target: T1, CYP2E1; experiment: in vitro; settings: human liver microsomes, pH 7.4, probe chlorzoxazone (6-hydroxylation)
# Description: as §3, §4, §5, §6
# 129/sv mice [9] = experiment: Mouse study of INH/RIF(/PZA) with i.p. Kaempferol or Quercetin
# From the text: Animals were randomized into one of seven groups, each involving five treatments.
# All mice were subjected to GSP tests.
# [10] = biological target: cytochrome P450 2E1 (CYP2E1) (Homo sapiens, UniProt P05181); experiment: CYP2E1 High Throughput Inhibitor Screening Kit, cDNA synthesized microsomal CYP2E1 (MFC to HFC); settings: Table 3; minimum tested concentration (mg/L) × volume of human liver and intestine (3L)
# Sequence of cytochrome P450 2E1 (CYP2E1) (P05181 whole entry): as above
# From the text: CYP2E1 High Throughput Inhibitor Screening Kit (BD Bioscience, USA) was used to screen the cytochrome P450 (CYP2E1) inhibitors from 22 Chinese medicine guiding drugs and 10 excipients and microsomal cytochrome P450 (CYP2E1) was synthesized from cDNA (BD Bioscience, USA). The principle of the screening kit is to measure the percentage of CYP2E inhibition, after adding the test sample to substrate MFC (7-Methoxy-4-trifluoromethyl coumarin) and cytochrome P450 (CYP2E1), by measuring the synthesis of standard CYP2E1 metabolite (HFC, 7-Hydroxy-4-trifluoromethyl coumarin) and use control HFC as baseline.
# a. 149 μl NADPH-Cofactor Mix and 1 μl 20 mM DDTC were added to the #1 well in a 96-well plate and mixed thoroughly,
# b. Add 100 μl Cofactor/acetonitrile mix to #2 to #12 wells, and well #1 to #8 are positive control. Well #9 and 10 are control and well #11 and #12 are blank,
# c. […] Preparation of Experimental Groups: a. […] Transfer 50 μl from well #1 and #2 and added to well #3 and mixed thoroughly (triplicate for each sample), 3. Initiation and Termination of the Reaction: a. The 96-well plate was incubated at 37° C. for […], b. 100 μl of Enzyme/Substrate Mix was added to every well and mixed thoroughly except the blank wells, c. The 96-well plate was incubated at 37° C. for 40 min, d. 75 μl Stop Solution was added to every well and mixed thoroughly, e. Immediately add 100 μl Enzyme/Substrate Mix to blank wells and mixed thoroughly, f. Measure with a Fluoroskan Ascent FL (Thermo Electron Corporation, Finland) with excitation at 405 nm and emission at 538 nm, 4. The fluorescence was transverse into CYP 2E1 metabolite standard (HFC) concentration (pmol) and the percentage (%) of CYP 2E1 inhibition was calculated using control as baseline by following equation: […]
# [11] = i.p. daily 49 days, PZA 500 mg/kg, BNPP 50 mg/kg
# [12] = daily i.p. 3 weeks, INH/RIF 50/100 mg/kg, Kaempferol 3.78 mg/kg
compound,measurement,setting,value
"NC(=O)c1cnccn1 [PZA, pyrazinamide]",plasma ALT activities,[1]; [11],91±11 IU/L
same,plasma AST activities,[1]; [11],179±10 IU/L
same,liver histopathology,"[1]; seven weeks, in words",showed hepatocellular damage
"NNC(=O)c1ccncc1 [INH, isoniazid]",GEC values,[2]; 21 days,3.4±0.6 mg/min·kg
same,plasma ALT activities,[2]; i.p. once daily 21 days,52±3 IU/L
same,plasma AST activities,[2]; i.p. once daily 21 days,129±10 IU/L
same,plasma concentrations of 8-iso-PGF2α,[2]; i.p. once daily 21 days,0.151 ± 0.026 ng/mL
same,liver histopathology,"[2]; three weeks, H&E, EM, in words",showed hepatocellular damage
OC[C@@H](O)[C@@H](O)[C@H](O)[C@H](O)CO [Mannitol],"inhibition at 30 min, 16.5 µM",CYP2E1 [3],44.8 ± 1.8%
same,"inhibition at 30 min, 33 µM",CYP2E1 [3],51.2 ± 2.1%
same,"inhibition at 30 min, 66 µM",CYP2E1 [3],54.5 ± 4.2%
same,Minimum Effective Dose,[4]; Table 7,10 mg
same,GSP values over treatment time,129/sv mice [5],remained constant
same,Amidase inhibition,amidase; 0.0005%,58.3 ± 4.3%
same,Amidase inhibition,amidase; 0.005%,52.8 ± 7.6%
same,Amidase inhibition,amidase; 0.05%,1.9 ± 6.0%
same,GSP values over treatment time,129/sv mice [6],reamined constant
OC[C@H]1O[C@H](O[C@]2(CCl)O[C@H](CCl)[C@@H](O)[C@@H]2O)[C@H](O)[C@@H](O)[C@H]1Cl [Sucralose],"inhibition at 30 min, 16.5 µM",CYP2E1 [3],37.1 ± 2.8%
same,"inhibition at 30 min, 33 µM",CYP2E1 [3],45.8 ± 4%
same,"inhibition at 30 min, 66 µM",CYP2E1 [3],55.8 ± 2%
same,Minimum Effective Dose,[4]; Table 7,22 mg
same,GSP values over treatment time,129/sv mice [5],remained constant
Tween 80,inhibition,[7],23.1 ± 3%
O=C1NS(=O)(=O)c2ccccc21 [Saccharin],"inhibition at 30 min, 16.5 µM",CYP2E1 [3],29.4 ± 2.7%
same,"inhibition at 30 min, 33 µM",CYP2E1 [3],51.2 ± 0.9%
same,"inhibition at 30 min, 66 µM",CYP2E1 [3],78.5 ± 2.1%
same,Minimum Effective Dose,[4]; Table 7,10 mg
same,GSP values over treatment time,129/sv mice [5],remained constant
OCc1ccccc1 [Benzyl alcohol],"inhibition at 30 min, 0.08 % (w/v)",CYP2E1 [3],6.7 ± 1%
same,"inhibition at 30 min, 0.167 % (w/v)",CYP2E1 [3],-10.3 ± 6.3%
same,"inhibition at 30 min, […]",CYP2E1 [8],7.7 ± 2.6%
O=c1c(O)c(-c2ccc(O)cc2)oc2cc(O)cc(O)c12 [Kaempferol],liver function tests,"129/sv mice [9]; Kaempferol 1.89 mg/kg with INH/RIF, in words",no obvious reduction
same,GOT,129/sv mice [9]; [12],89±19 U/L
same,GPT,129/sv mice [9]; [12],48±21 U/L
same,Minimum Effective Dose,[10],16 mg
same,Minimum Effective Dose,"[4]; Table 6, minimum tested concentration (mg/L) × volume of human liver and intestine (3 L)",16 mg
same,GSP values over treatment time,129/sv mice [5],remained constant
CCCCCCCCCCCCCCCCCC(=O)OCC(O)CO (centres unmarked) [Glycerrin monostearate],inhibition,[7],5.8 ± 1.7%
same,Inhibition of CYP 2E1,[4]; 0.08% (w/v),7.4 ± 2.9%
same,Inhibition of CYP 2E1,[4]; 0.167% (w/v),6.9 ± 3.8%
Sodium starch glycolate,inhibition,[7],34.7 ± 1.3%
OC[C@@H](O)[C@@H](O)[C@H](O)[C@@H](O)CO [Sorbitol],"inhibition at 30 min, 0.08 % (w/v)",CYP2E1 [3],5.6 ± 0.5%
same,"inhibition at 30 min, 0.167 % (w/v)",CYP2E1 [3],16.1 ± 0.7%
same,"inhibition at 30 min, […]",CYP2E1 [8],4.4 ± 1.7%
